These results are taken from publication PMC11850249, “Typical and atypical metabolic characteristics of three iridaceae isoflavone components: in vitro and in silico studies” (Frontiers in Pharmacology, 2025).

Each structure is given as a SMILES string. Where “and” joins values, the source holds several entries; their conditions need not be identical. Equal entries are not always repeated. Where two headings read alike, the source gives them in different places.

As a reminder, the Hill coefficient is the slope factor of the fitted curve. The term Km denotes the substrate concentration at which the rate is half of its maximum.

Series [1] deals with human liver microsomes (HLMs). In words: Metabolic stability and metabolite identification in HLMs. Format: in vitro ADME. As to conditions: 30 min. The procedure:
To analyze the metabolic stability, a phase I metabolic system was established. Tectorigenin, irigenin, or irisflorentin (100 μM) was pre-incubated at 37°C with Tris-HCl buffer solution (50 mM), MgCl2 (10 mM), and HLMs (0.5 mg protein/mL). After 5 min, NADPH (1 mM) was added to start the metabolic reactions. After incubation for 30 min, an equal volume of methanol was added to terminate the reaction. After centrifugation, the supernatant was used for metabolite analysis. By comparing the high-performance liquid chromatography (HPLC) chromatograms of the samples incubated for 0 and 30 min to determine the generation of metabolites, mass spectrometry information for the metabolites was obtained using an UPLC-linear ion Trap-Orbitrap Mass Spectrometry method.
A UPLC system coupled with an LTQ-Orbitrap mass spectrometer (Thermo Fisher Scientific, Waltham, MA, United States) was used. The mass spectrometer was equipped with an electrospray ionization source operating in negative ion mode for tectorigenin and irigenin, and in positive ion mode for irisflorentin. The following parameter settings were used: sheath gas flow rate, 45 arb; auxiliary gas flow rate, 15 arb; capillary temperature, 350°C; spray voltage, 3.8 kV; and heating component temperature, 300°C. Xcalibur software (Thermo Fisher Scientific) was employed to acquire and process the data.

The next series concerns CYP isoenzymes in HLMs. Kind of series: Inhibition by chemical CYP inhibitors in HLMs. It is filed as in vitro ADME, human. The protocol: To investigate the role of specific CYP subtypes in metabolism, tectorigenin, irigenin, or irisflorentin (100 μM) was co-incubated with HLMs (0.5 mg protein/mL), NADPH (1 mM), and MgCl2 (10 mM) in the presence of known CYP inhibitors. The inhibitors used were α-Naph (20 μM) for CYP1A2 ([Zhang Y. J. et al., 2021]), Tryp (2 μM) for CYP2A6 ([Rodríguez-Morató et al., 2017]), Spz (10 μM) for CYP2C9 ([Berger et al., 2018]), Ticlo (2 μM) for CYP2B6 and 2C19 ([Yang et al., 2019]), Qd (8 μM) for CYP2D6 ([Martin et al., 2022]), DDC (100 μM) for CYP2E1 ([Zhang X. et al., 2021]), and KCZ (1 μM) for CYP3A4 ([Berger et al., 2018]). Finally, the samples obtained by centrifugation after adding ice-cold methanol to the incubated samples were analyzed using HPLC. Samples without inhibitors were used as controls to calculate the inhibition rates. Each inhibitor group and the control group were compared. All experiments were carried out in triplicate.

For series [2], the system named is recombinant CYP enzymes (CYP1A2, CYP2A6, CYP2C8, CYP2C9, CYP2C19, CYP2D6, CYP2E1, CYP3A4). In words: Reaction phenotyping with recombinant CYP enzymes. It is filed as in vitro ADME, human. The protocol: To assess the role of CYP enzymes to isoflavone metabolism, tectorigenin, irigenin, or irisflorentin (100 μM) was co-incubated with 25 pmol of recombinant CYP enzymes (CYP1A2, CYP2A6, CYP2C8, CYP2C9, CYP2C19, CYP2D6, CYP2E1, and CYP3A4) and MgCl2 (10 mM) in Tris-HCl buffer. The samples were pre-incubated at 37°C for 5 min, and the reaction was initiated by the addition of NADPH. After 30 min of incubation, the supernatant obtained by centrifugation after adding methanol to the incubated sample was analyzed by HPLC. All experiments were carried out in triplicate.

The subject of series [3] is human liver microsomes (HLMs). Kind of series: Enzyme kinetics in HLMs. As to conditions: for Km: n = 3, read-out: Km for metabolite formation. Format: in vitro ADME. The procedure:
(§1) A series of concentrations (1–300 μM) of tectorigenin, irigenin, or irisflorentin were added to HLMs or recombinant enzymes. Nonlinear regression was performed on the substrate concentration and generation rate of metabolites to investigate the enzymatic kinetic characteristics of these components in the metabolic system. All experiments were carried out in triplicate.
(§2) A Waters AQUITY UPLC system (Waters, Milford, MA, United States) equipped with a Dikma ODS C18 column (150 × 4.6 mm, 5 μm) was used for separation at 30°C. The binary mobile phase consisted of A (an aqueous solution containing 0.1% acetic acid and 2 mM ammonium acetate) and B (acetonitrile) at a flow rate of 1 mL/min. The elution settings were as follows: 0 → 5 min: 10% B → 20% B; 5 min → 20 min: 20% B → 50% B; 20 min → 21 min: 50% B → 60% B; 21 min → 25 min: 60% B → 90% B; 25 min → 25.1 min 90%–10% B; 25.1 min → 30 min 10% B. Flow rate: 1 mL/min 260 nm was used as the detection wavelength. Calibration standard curves were generated using a reaction mixture containing tectorigenin, irigenin, or irisflorentin at a concentration range of 0.03–10 µM. The concentrations of the metabolites were calculated using a standard curve of the substrates.
(§3) GraphPad Prism software 5.0 was used to perform non-linear fitting between the metabolite generation rate (V) and substrate concentration [S]. The appropriateness of the enzyme kinetic model was determined using R ^2 and the Eadie-Hofstee fit. The maximum metabolic rate (Vmax) and Michaelis constant (Km) were obtained for kinetic processes that conformed to the Michaelis–Menten model (Equation 1). For kinetic processes that conform to the sigmoidal kinetics model (Equation 2), Vmax, Hill coefficient (n), and S50, concentrations at 50% Vmax were obtained. Intrinsic clearance (Clint) was calculated according to Equation 3 (for the Michaelis–Menten model) and Equation 4 (for the sigmoidal kinetics model). All data are expressed as mean ± Standard Error (SE). One - way analysis of variance was used to compare the differences between different groups. A p-value below 0.05 was regarded as statistically significant. V=VmaxS/Km+S (1) V=Vmax+C^n/S50n+C^n (2) Clint=Vmax/Km (3) Clint=Vmax/S50×n−1/nn−1^1/n (4)

In a further series the target is T1, CYP1A2 (Homo sapiens, UniProt P05177).
T1 construct: purchased CYPEX (Dundee, United Kingdom)
T1 sequence (P05177 1-516): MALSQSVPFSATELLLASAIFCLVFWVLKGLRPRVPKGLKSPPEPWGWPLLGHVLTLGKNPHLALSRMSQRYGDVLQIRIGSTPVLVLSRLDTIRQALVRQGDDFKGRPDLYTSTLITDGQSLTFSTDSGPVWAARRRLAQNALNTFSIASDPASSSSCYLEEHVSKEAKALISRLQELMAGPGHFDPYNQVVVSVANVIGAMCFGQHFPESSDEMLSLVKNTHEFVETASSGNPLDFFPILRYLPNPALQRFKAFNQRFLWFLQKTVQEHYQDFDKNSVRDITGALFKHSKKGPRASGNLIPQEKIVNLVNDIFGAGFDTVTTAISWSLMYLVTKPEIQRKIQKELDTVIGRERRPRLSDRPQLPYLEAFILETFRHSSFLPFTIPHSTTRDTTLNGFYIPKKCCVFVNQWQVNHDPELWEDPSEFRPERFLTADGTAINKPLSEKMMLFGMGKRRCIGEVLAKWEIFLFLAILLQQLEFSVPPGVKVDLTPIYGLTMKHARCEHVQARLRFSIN
In words: Enzyme kinetics with recombinant CYP1A2. It is filed as in vitro ADME. The procedure: as §1
(§4) A Waters AQUITY UPLC system (Waters, Milford, MA, United States) equipped with a Dikma ODS C18 column (150 × 4.6 mm, 5 μm) was used for separation at 30°C. The binary mobile phase consisted of A (an aqueous solution containing 0.1% acetic acid and 2 mM ammonium acetate) and B (acetonitrile) at a flow rate of 1 mL/min. […] The concentrations of the metabolites were calculated using a standard curve of the substrates.
(§5) GraphPad Prism software 5.0 was used to perform non-linear fitting between the metabolite generation rate (V) and substrate concentration [S]. The appropriateness of the enzyme kinetic model was determined using R ^2 and the Eadie-Hofstee fit. […] Intrinsic clearance (Clint) was calculated according to Equation 3 (for the Michaelis–Menten model) and Equation 4 (for the sigmoidal kinetics model). All data are expressed as mean ± Standard Error (SE). […]

A further series has as its system rat liver microsomes. Further details: method as in Zhang Y. J. et al., 2021. The following applies: ref Zhang Y. J. et al., 2021; cited from earlier work.
A further series in a line: Enzyme kinetics in HLMs. It is filed as in vitro ADME, human. The following applies: human, human liver microsomes, calculated from Vmax and Km or S50, read-out: Clint for metabolite formation. The protocol:
as §1, §2, §3

The target of the next series is T2, CYP2E1 (Homo sapiens, UniProt P05181).
T2 construct: purchased CYPEX (Dundee, United Kingdom)
Kind of series: Enzyme kinetics with recombinant CYP2E1. Format: in vitro ADME. The procedure: as §1, §4, §5

Another series deals with T3, CYP3A4 (Homo sapiens, UniProt P08684).
T3 construct: purchased CYPEX (Dundee, United Kingdom)
Kind of series: Enzyme kinetics with recombinant CYP3A4. It is filed as in vitro ADME. The protocol: as §1, §4, §5

The next series concerns the target T4, CYP2C19 (Homo sapiens, UniProt P33261).
T4 construct: purchased CYPEX (Dundee, United Kingdom)
In words: Enzyme kinetics with recombinant CYP2C19. Format: in vitro ADME. The procedure: as §1, §4, §5

Setting [4] is: Michaelis-Menten model, mean ± SE.

T3 sequence (P08684 whole entry): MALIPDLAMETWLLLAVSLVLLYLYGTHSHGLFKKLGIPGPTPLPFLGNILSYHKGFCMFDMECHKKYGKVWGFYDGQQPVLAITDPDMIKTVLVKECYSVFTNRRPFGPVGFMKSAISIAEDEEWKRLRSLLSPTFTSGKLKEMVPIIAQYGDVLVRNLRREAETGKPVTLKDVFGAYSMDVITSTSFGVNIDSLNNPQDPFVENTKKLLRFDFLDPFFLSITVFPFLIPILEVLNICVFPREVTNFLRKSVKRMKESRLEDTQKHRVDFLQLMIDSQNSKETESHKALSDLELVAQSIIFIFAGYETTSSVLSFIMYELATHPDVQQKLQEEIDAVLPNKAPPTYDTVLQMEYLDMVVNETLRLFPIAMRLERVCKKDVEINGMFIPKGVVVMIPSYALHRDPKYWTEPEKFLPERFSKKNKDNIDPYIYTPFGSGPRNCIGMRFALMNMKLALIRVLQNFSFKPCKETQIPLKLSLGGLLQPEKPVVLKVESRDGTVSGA
T2 sequence (P05181 whole entry): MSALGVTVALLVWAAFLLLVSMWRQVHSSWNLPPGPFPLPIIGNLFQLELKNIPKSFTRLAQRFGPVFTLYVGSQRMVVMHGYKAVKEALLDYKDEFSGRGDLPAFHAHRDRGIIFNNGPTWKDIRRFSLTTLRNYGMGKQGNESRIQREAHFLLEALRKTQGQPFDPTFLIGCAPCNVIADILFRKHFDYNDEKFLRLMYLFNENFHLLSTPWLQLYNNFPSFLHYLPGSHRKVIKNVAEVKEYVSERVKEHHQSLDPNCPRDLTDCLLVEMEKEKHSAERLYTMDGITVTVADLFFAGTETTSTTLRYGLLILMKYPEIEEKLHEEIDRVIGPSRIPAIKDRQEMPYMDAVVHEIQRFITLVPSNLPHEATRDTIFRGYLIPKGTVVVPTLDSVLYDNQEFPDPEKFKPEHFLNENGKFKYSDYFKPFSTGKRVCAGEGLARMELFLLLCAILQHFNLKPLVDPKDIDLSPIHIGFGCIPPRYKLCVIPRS
T4 sequence (P33261 whole entry): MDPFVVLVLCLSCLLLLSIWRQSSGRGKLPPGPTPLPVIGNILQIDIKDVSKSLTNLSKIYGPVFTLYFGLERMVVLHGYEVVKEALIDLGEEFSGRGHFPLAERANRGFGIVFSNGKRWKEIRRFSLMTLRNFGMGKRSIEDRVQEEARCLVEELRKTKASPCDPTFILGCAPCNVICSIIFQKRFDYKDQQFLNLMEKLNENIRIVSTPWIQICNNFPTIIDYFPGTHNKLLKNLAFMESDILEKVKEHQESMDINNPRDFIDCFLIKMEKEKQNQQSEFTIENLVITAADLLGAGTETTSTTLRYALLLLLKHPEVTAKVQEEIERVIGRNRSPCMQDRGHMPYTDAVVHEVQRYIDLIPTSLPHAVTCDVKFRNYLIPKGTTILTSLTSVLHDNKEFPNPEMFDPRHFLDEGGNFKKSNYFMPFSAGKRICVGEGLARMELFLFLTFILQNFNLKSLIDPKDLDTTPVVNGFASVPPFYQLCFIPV

On to `COc1cc(-c2coc3cc4c(c(OC)c3c2=O)OCO4)cc(OC)c1OC` [Irisflorentin], for which, in [1] (human, 100 μM), the “major metabolite after incubation with HLMs” value is 6,7-dihydroxy-5,3′,4′,5′-tetramethoxy isoflavone. Also, in the series on CYP isoenzymes in HLMs, the “effect of Ticlo on metabolite formation (in words)” value (“effect of Ticlo” for short) is “no effect or a weak inhibitory effect” and the “effect of α-Naph on metabolite formation (in words)” value is reported as “strong inhibition”. Moreover, in series [2] (human, 30 min, 100 μM), the “metabolism by CYP1A2 relative to CYP2C9, CYP2C19 and CYP3A4” value is reported as 21–55 times; the “recombinant CYP subtypes that catalyze metabolite formation” value is “CYP1A2, CYP2C19, and CYP3A4”. Also, the “enzyme kinetic model (Eadie-Hofstee plot)” value (from here on “enzyme kinetic model”) in series [3] is reported as “sigmoidal kinetics characteristic”. Besides, the “Vmax for metabolite formation” value in series [3] (mean ± SE, n = 3) turned out to be 235.4 ± 3.2 pmol/min/mg protein. In [3] (sigmoidal kinetics model), the “Hill coefficient (n)” value was 1.8 ± 0.1. The compound further had an S50 in series [3] (sigmoidal kinetics model, mean ± SE, n = 3) of 32.9 ± 1.0 µM. In addition, the Hill coefficient at CYP1A2 (recombinant CYP1A2, sigmoidal kinetics) was 1.5 ± 0.1 and 1.5. Besides, the Clint at CYP1A2 (recombinant CYP1A2, sigmoidal kinetics model) is given as 1.5 μL/min/pmol CYP. The Hill coefficient with rat liver microsomes is listed as 1.48.
Turning to `COc1c(O)cc2occ(-c3ccc(O)cc3)c(=O)c2c1O` [Tectorigenin], in series [1] (100 μM substrate, HLMs 0.5 mg protein/mL, NADPH 1 mM), the “major metabolite after incubation with HLMs” value is reported as “hydroxylation metabolite of tectorigenin”. Moreover, the “effect of Ticlo” value with CYP isoenzymes in HLMs (inhibitor Ticlo (CYP2B6 and 2C19 inhibitor), HLMs) is “no effect or a weak inhibitory effect”. Further, the “effect of α-Naph on metabolite formation (in words)” value in the series on CYP isoenzymes in HLMs (inhibitor α-Naph (CYP1A2 inhibitor), HLMs) was “slight inhibition”. Also, in [2] (human, 30 min, 100 μM), the “production of metabolites by CYP2E1 and CYP3A4 relative to the other subtypes” value is given as 3–38 times. For the same compound, in series [2] (human, 30 min, 100 μM), the “recombinant CYP subtypes that catalyze metabolite formation” value was “CYP1A2, CYP2C19, CYP2E1, and CYP3A4”. For the same compound, the microsomal CLint in “Enzyme kinetics in HLMs” was 2.6 µL/min/mg. Moreover, the “enzyme kinetic model” value in series [3] is listed as “Michaelis–Menten equation”. Besides, the Km in [3] (setting [4]) turned out to be 106 ± 7.3 µM. Besides, the “Vmax for metabolite formation” value in series [3] (mean ± SE, n = 3) was 275.9 ± 7.6 pmol/min/mg protein. For the same compound, the Clint at CYP2E1 and at CYP3A4 was 0.2 μL/min/pmol CYP each time.
Regarding `COc1cc(-c2coc3cc(O)c(OC)c(O)c3c2=O)cc(O)c1OC` [Irigenin], in the series with CYP isoenzymes in HLMs, the “effect of Ticlo” value was “significantly inhibited”. The “recombinant CYP subtypes that catalyze metabolite formation” value in series [2] (100 μM substrate, 25 pmol recombinant CYP, 30 min, eight subtypes measured) is “CYP3A4, CYP2C9, and CYP2C19”. In addition, the “metabolism by CYP2C19 relative to CYP2C9 and CYP3A4” value in series [2] (recombinant enzymes, CYP2C19 vs CYP2C9 and CYP3A4) is 10–29 times. Moreover, in [3], the “enzyme kinetic model” value is “Michaelis–Menten equation”. Moreover, the Vmax for metabolite formation in series [3] (Michaelis-Menten model, mean ± SE, n = 3) came to 263 ± 13.6 pmol/min/mg. In series [3] (setting [4]), the Km was determined as 17.5 ± 3.2 µM. The Clint at CYP2C19 amounted to 0.5 μL/min/pmol CYP.
